In ChEMBL document CHEMBL5143563, “Discovery of DS-3801b, a non-macrolide GPR38 agonist with N-methylanilide structure” (Bioorg Med Chem Lett, 2022):

Assays:
[1] = molecular target: T1, Motilin receptor (Homo sapiens, UniProt O43193); experiment: Agonist activity at human GPR38 expressed in COS-7 cells; format: functional, cell-based
[2] = Agonist activity at rabbit GPR38 expressed in COS-7 cells; format: cell-based; settings: Oryctolagus cuniculus
[3] = molecular target: T2, CYP3A4 (Homo sapiens, UniProt P08684); experiment: Inhibition of CYP3A4 in human liver microsomes assessed as remaining activity; format: ADME, Microsome; parameters: concentration or dose not given beside the values
[4] = Lipophilicity, logD of the compound at pH 7.4; settings: buffer
[5] = Ex vivo agonist activity at GPR38 in rabbit duodenum muscle tissue assessed as intestinal contractile activity; format: tissue-based, Oryctolagus cuniculus
[6] = molecular target: T1, Motilin receptor; experiment: Potency index, ratio of GSK962040 EC50 to test compound EC50 for human GPR38 expressed in COS-7 cells; format: functional, cell-based
[7] = molecular target: T2, CYP3A4; experiment: Inhibition of CYP3A4 (unknown origin) at 10 uM; format: ADME
[8] = Protein binding in rabbit; format: ADME, Oryctolagus cuniculus; settings: read-out: PB (converted)
[9] = molecular target: T3, CYP1A2 (Homo sapiens, UniProt P05177); experiment: Inhibition of CYP1A2 (unknown origin) at 10 uM; format: ADME
T3 sequence (P05177 whole entry): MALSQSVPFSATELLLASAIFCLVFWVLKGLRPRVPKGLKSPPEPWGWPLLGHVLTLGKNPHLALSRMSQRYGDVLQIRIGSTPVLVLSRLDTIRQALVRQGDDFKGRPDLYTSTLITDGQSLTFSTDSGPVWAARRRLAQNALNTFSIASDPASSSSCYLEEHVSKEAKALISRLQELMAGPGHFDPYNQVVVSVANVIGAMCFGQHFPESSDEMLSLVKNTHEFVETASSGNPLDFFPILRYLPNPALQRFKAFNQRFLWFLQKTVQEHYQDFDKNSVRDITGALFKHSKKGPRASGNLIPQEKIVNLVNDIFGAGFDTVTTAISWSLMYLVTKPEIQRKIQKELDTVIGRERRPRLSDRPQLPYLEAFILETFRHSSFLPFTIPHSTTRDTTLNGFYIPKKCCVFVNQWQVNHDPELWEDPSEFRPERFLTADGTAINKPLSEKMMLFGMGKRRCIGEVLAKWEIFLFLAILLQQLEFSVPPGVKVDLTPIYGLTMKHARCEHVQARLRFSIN

[10] = Effective permeability of the compound at pH 7.4 by PAMPA assay; format: ADME; settings: read-out: Peff
[11] = Protein binding in human; format: ADME; settings: read-out: PB (converted)
[12] = species: Oryctolagus cuniculus; experiment: Potency index, ratio of GSK962040 EC50 to test compound EC50 for Ex vivo agonist activity at GPR38 in rabbit duodenum muscle tissue; format: tissue-based
[13] = Effective permeability of the compound at pH 5 by PAMPA assay; format: ADME; settings: read-out: Peff
[14] = molecular target: CYP2C9 (Homo sapiens, UniProt P11712); experiment: Inhibition of CYP2C9 (unknown origin) at 10 uM; format: ADME
[15] = molecular target: CYP2D6 (Homo sapiens, UniProt P10635); experiment: Inhibition of CYP2D6 (unknown origin) at 10 uM; format: ADME
Sequence of CYP2D6 (P10635 whole entry): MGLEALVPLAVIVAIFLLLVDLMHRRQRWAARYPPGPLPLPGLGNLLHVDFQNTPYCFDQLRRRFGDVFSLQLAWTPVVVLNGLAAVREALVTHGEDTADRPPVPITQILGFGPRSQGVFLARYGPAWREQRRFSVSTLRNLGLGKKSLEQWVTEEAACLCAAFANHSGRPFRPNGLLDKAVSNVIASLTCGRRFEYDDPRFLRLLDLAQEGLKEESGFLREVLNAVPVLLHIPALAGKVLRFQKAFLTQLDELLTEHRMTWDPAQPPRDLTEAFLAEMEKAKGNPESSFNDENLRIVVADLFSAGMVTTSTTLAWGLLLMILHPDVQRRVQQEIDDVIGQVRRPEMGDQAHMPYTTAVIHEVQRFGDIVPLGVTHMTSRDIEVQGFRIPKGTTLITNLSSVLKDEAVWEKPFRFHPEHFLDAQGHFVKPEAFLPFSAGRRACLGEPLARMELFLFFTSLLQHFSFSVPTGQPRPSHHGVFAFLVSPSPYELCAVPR

T1 sequence (O43193 whole entry): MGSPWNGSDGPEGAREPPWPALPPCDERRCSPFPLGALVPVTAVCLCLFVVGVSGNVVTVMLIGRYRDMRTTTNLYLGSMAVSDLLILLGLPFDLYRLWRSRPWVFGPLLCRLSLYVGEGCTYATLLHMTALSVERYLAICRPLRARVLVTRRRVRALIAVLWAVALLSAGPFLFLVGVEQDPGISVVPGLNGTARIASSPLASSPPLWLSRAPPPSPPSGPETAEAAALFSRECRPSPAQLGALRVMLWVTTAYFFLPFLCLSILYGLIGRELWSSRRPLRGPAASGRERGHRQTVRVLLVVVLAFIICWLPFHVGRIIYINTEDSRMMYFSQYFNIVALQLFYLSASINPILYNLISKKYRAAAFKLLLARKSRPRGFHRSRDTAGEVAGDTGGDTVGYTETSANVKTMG
T2 sequence (P08684 whole entry): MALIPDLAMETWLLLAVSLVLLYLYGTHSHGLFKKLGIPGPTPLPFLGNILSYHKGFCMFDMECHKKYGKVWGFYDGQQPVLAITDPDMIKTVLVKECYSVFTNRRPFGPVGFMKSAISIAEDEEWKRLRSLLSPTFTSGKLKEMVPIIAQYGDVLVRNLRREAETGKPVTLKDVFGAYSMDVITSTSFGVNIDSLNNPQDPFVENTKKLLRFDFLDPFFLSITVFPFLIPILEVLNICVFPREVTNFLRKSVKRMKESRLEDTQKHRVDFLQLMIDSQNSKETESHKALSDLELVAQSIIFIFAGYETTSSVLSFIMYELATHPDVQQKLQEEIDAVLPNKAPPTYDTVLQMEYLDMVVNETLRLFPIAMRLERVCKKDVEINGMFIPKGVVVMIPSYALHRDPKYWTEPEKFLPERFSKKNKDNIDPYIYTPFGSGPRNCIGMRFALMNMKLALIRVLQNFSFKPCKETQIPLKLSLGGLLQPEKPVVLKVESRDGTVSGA
Sequence of CYP2C9 (P11712 whole entry): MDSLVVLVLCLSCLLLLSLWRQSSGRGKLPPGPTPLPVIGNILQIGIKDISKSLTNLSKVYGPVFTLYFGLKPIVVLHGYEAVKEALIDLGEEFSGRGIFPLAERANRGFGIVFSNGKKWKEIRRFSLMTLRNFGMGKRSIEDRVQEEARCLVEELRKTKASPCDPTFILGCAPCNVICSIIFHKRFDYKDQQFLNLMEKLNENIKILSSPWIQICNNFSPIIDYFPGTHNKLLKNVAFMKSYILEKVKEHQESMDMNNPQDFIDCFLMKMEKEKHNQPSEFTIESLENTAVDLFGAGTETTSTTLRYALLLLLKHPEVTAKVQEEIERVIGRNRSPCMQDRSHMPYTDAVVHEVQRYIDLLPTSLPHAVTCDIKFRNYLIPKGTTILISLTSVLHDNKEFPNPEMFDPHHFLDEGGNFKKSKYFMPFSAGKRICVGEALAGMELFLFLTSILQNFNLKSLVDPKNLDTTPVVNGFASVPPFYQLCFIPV

Structure (SMILES)	EC50 [1] [nM]	EC50 [2] [nM]	activity [3] [%]	logD [4]	further results
Cc1cc(N(C)C(=O)[C@H]2CC[C@H](Oc3cccc(C(=O)O)c3)CC2)ccc1CN1CCN[C@@H](C)C1	> 10000	1300	101	-0.4	
Cc1cc(N(C)C(=O)[C@H]2CC[C@H](Oc3cccc(CC(=O)NC(C)C)c3)CC2)ccc1CN1CCN[C@@H](C)C1	1.6	0.26	68	1.8	
Cc1cc(N(C)C(=O)[C@H]2CC[C@H](Oc3ccc(F)cn3)CC2)ccc1CN1CCN[C@@H](C)C1	4.6	0.26	47	1.9	
Cc1cc(N(C)C(=O)[C@H]2CC[C@H](Oc3ccc(Cl)c(CO)c3)CC2)ccc1CN1CCN[C@@H](C)C1	1.8	0.13	56		
Cc1cc(N(C)C(=O)[C@H]2CC[C@H](Oc3cc(CO)ccc3C)CC2)ccc1CN1CCN[C@@H](C)C1	5.6	1	54		
C[C@H]1CN(Cc2ccc(-c3cccnc3N3CCC(Nc4cccc(F)c4)CC3)cc2)CCN1	18	1.7			
C[C@H]1CN(Cc2ccc(N(C)C(=O)[C@H]3CC[C@H](Oc4ccc(F)cc4)CC3)cc2Cl)CCN1	2	0.18	23		
CC[C@H]1CN(Cc2ccc(N(C)C(=O)[C@H]3CC[C@H](Oc4ccc(F)cc4)CC3)cc2C)CCN1	350		29		
CC[C@H](C)[C@H](NC(=O)[C@@H]1CCCN1C(=O)[C@@H](NC(=O)[C@@H](N)Cc1ccccc1)C(C)C)C(=O)N[C@@H](Cc1ccccc1)C(=O)N[C@H](C(=O)N[C@@H](Cc1ccc(O)cc1)C(=O)NCC(=O)N[C@@H](CCC(=O)O)C(=O)N[C@@H](CC(C)C)C(=O)N[C@@H](CCC(N)=O)C(=O)N[C@@H](CCCNC(=N)N)C(=O)N[C@@H](CCSC)C(=O)N[C@@H](CCC(N)=O)C(=O)N[C@@H](CCC(=O)O)C(=O)N[C@@H](CCCCN)C(=O)N[C@@H](CCC(=O)O)C(=O)N[C@@H](CCCNC(=N)N)C(=O)N[C@@H](CC(N)=O)C(=O)N[C@@H](CCCCN)C(=O)NCC(=O)N[C@@H](CCC(N)=O)C(=O)O)[C@@H](C)O	0.97	0.16			EC50 [5]: 0.23 nM
Cc1cc(N(C)C(=O)[C@H]2CC[C@H](Oc3ccc(F)cc3)CC2)ccc1CN1CCN[C@@H](C)C1	2.1	0.21	32	2.5	
Cc1cc(CN2CCN[C@@H](C)C2)ccc1N(C)C(=O)[C@H]1CC[C@H](Oc2ccc(F)cc2)CC1	240		40		
Cc1cc(N(C)C(=O)[C@H]2CC[C@H](Oc3cccc(CC(C)(C)O)c3)CC2)ccc1CN1CCN[C@@H](C)C1	4.3	1.1	50	2	
Cc1cc(N(C)C(=O)[C@H]2CC[C@H](Oc3ccc(F)cc3)CC2)ccc1CN1CCNCC1	46	1.3	82		
C[C@@H]1CN(Cc2ccc(-c3cccnc3C(=O)N3CCC(Cc4ccc(F)cc4)CC3)cc2)C[C@H](C)N1	51	3.8			Ratio EC50 [6]: 20
C[C@H]1CN(Cc2ccc(CC(=O)N3CCC(Nc4cccc(F)c4)CC3)cc2)CCN1 [CAMICINAL]	970	42			EC50 [5]: 82.6 nM
C[C@H]1CN(Cc2ccc(NC(=O)[C@H]3CC[C@H](Oc4ccc(F)cc4)CC3)cc2)CCN1	> 10000	> 10000			
CCOCc1cccc(N[C@H]2CC[C@H](C(=O)N(C)c3ccc(CN4CCN[C@@H](C)C4)c(C)c3)CC2)c1	2.6		61	2.5	
Cc1cc(N(C)C(=O)[C@H]2CC[C@H](Oc3cccc(CO)c3)CC2)ccc1CN1CCN[C@@H](C)C1	5.3	1.3	74	1.3	inhibition at 10 µM [7]: 3.1%; fraction unbound [8]: 0.335; inhibition at 10 µM [9]: 13%; Papp [10]: 48 ×10⁻⁶ cm/s; fraction unbound [11]: 0.228; Ratio EC50 [12]: 11; EC50 [5]: 7.3 nM; Papp [13]: 1.5 ×10⁻⁶ cm/s; inhibition at 10 µM [14]: 5.3%; inhibition at 10 µM [15]: 8.8%
Cc1cc(N(C)C(=O)[C@H]2CC[C@H](Oc3cccc(CCO)c3)CC2)ccc1CN1CCN[C@@H](C)C1	4.7	0.51	60	1.3	
Cc1cc(N(C)C(=O)[C@H]2CC[C@H](Oc3ccc(F)c(CO)c3)CC2)ccc1CN1CCN[C@@H](C)C1	7.5	0.62	54	1.6	
C[C@H]1CN(Cc2ccc(N(C)C(=O)[C@H]3CC[C@H](Oc4ccc(F)cc4)CC3)cc2)CCN1	55	2.6	44		EC50 [5]: 28 nM
CC[C@H]1CN(Cc2ccc(N(C)C(=O)[C@H]3CC[C@H](Oc4ccnc(C#N)c4)CC3)cc2C)CCN1	11	1.2	68	1	EC50 [5]: 4.8 nM
